Measurements: PMC6950567, “Evaluation of Marine Diindolinonepyrane in Vitro and in Vivo: Permeability Characterization in Caco-2 Cells Monolayer and Pharmacokinetic Properties in Beagle Dogs” (Marine Drugs, 2019)
Entries after “also recorded” stand apart in the source; their conditions may differ. Where two headings read alike, the source gives them in different places.

Assays:
[1] = Short-term stability in beagle dog plasma; type: in vitro ADME; conditions: 24 h, residual/initial
Experimental: The stability of 2,5-BHPA was assayed at 1, 100, and 400 mg/L. The short-term stability of 2,5-BHPA stored at 37 °C was determined after 24 h. Stability was defined as the amount of 2,5-BHPA residual after 24 h divided by the initial amount.

[2] = target: T1, P-gp (Homo sapiens, UniProt P08183); assay: P-gp substrate assessment from Caco-2 bidirectional transport; type: in vitro ADME; conditions: suggested from Caco-2 transport with 0.1% BSA
T1 construct: host or cells: Caco-2
T1 sequence (P08183 whole entry): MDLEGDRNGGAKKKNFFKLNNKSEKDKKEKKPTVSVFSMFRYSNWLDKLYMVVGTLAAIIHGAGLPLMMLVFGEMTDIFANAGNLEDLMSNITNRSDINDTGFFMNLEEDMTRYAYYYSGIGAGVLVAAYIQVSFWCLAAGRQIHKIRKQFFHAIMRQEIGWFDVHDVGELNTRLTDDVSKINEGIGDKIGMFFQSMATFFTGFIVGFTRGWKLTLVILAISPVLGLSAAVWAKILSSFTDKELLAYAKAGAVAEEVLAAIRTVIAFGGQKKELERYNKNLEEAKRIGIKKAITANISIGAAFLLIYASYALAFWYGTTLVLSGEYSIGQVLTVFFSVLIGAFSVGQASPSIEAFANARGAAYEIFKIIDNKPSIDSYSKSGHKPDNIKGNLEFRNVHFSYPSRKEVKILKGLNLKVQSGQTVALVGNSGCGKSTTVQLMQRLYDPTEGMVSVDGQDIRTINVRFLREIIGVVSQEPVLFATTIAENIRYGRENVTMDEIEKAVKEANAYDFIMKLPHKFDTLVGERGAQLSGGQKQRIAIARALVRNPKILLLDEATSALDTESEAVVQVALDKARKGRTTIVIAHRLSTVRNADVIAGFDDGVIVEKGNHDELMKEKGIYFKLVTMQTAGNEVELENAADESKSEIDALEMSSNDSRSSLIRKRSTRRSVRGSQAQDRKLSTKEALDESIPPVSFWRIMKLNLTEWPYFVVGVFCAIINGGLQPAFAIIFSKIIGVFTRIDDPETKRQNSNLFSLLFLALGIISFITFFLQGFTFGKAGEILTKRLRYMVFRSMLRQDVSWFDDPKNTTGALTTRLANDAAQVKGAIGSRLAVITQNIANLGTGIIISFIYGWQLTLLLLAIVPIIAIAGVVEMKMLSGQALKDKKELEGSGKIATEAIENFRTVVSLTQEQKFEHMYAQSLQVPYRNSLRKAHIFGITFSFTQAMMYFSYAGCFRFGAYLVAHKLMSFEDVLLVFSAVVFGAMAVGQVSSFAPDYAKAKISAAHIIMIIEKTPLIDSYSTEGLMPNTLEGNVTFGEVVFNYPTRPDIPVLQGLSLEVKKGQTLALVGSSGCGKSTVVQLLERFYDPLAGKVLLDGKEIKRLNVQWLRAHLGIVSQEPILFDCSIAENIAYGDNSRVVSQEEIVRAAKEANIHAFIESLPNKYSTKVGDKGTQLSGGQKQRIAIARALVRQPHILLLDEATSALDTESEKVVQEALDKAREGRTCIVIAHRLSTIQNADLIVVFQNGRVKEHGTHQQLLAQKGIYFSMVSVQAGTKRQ
Experimental: The Caco-2 cell model was established successfully, and the transwell plate was then rinsed with HBSS solution three times and cultured in an incubator at 37 °C for 30 min to remove the interfering substances on the cell surface. For transfer in the AP→BL direction, 0.075 mL drug solution was added to the AP side as the supply pool, and 0.25 mL HBSS solution was added to the BL side as the receiving pool. In the BL→AP direction, 0.25 mL compound solution was added to the BL side as the supply pool, and 0.075 mL HBSS solution was added to the AP side as the receiving pool. The transwell plate was then cultured in an incubator at 37 °C for 2 h. Samples on the AP side and BL side were collected, respectively. Then, acetonitrile containing an internal label was added to each upper chamber to lyse transport membranes. The total recovery was calculated by collecting the amount of lead compound absorbed on the membrane surface or accumulated in the cell. Finally, the concentration of each sample was calculated as the ratio of the peak area between the compound and the inner target through mass spectrum analysis (API 4000). […] Vr is the volume in the receiving hole (mL); A is the transport membrane area; and C0 is the compound initiation concentration (µM). […]

[3] = test system: fibrinolytic enzyme; set-up: method as in earlier work; conditions: cited from earlier work
[4] = Tissue distribution after intravenous injection in beagle dogs; type: in vivo; conditions: 7.5 mg/kg
Experimental: Moreover, another three dogs were fasted for 24 h with water ad libidum for the tissue distribution study. 2,5-BHPA was administered by intravenous injection at 7.5 mg/kg. Subsequently, their brain, stomach (emptied of gastric contents), heart, large intestine (emptied of gastric contents), liver, kidneys, spleen, urine, lungs, spermary, small intestine (emptied of gastric contents), feces, muscle, bile of dogs were removed at 60 min after compound administration. The tissues were flushed with normal saline, dried, weighed, and homogenized in proper methanol (methanol:sample = 5:1, V/V). The tissue samples were centrifuged at 5000× g for 15 min at RT, and the supernatants were filtered with a 0.22 µm disposable syringe filter for HPLC detection.

[5] = set-up: method as in PMID 24216275; conditions: rats, cited from earlier work

Work on CC(C)=CCCC(C)=CCCC1(C)Oc2c(c(O)cc3c2CN(CCCC(C(=O)O)N2Cc4c(cc(O)c5c4OC(C)(CCC=C(C)CCC=C(C)C)C(O)C5)C2=O)C3=O)CC1O (stereo not shown) [2,5-BHPA, 2,5-Bis-[8-(4,8-dimethyl-nona-3,7-dienyl)-5,7-dihydroxy-8-methyl-3-keto-1,2,7,8-tertahydro-6H-pyran[a]isoindol-2-yl]-pentanoic acid] yielded a Stability ([1]; 1.0 μg·mL^−1, 37 °C) of 94.69 ± 5.37%, a Stability ([1]; 100 μg·mL^−1, 37 °C) of 98.39 ± 2.25% and a Stability ([1]; 400 μg·mL^−1, 37 °C) of 97.63 ± 5.91%. For the same molecule, the “substrate of P-gp” value [2] was “not a substrate of P-gp”, the fibrinolytic activity [3] was “has been shown to have fibrinolytic activity” and the “concentration in different organs” value ([4]; 1 h after intravenous injection) was “concentration in the liver and bile was higher compared with other organs; also recorded: Lung, kidney, spleen, stomach, excrement, and urine contained moderate amounts; also recorded: highest 2,5-BHPA concentration level was detected in the liver”. The “detection in the brain” value ([4]; 60 min after intravenous injection) was “detected in the brain”, the half-life ([5]; intravenous (IV) bolus) was ~ 22 min and the “detection in the brain” value [5] was “not the case in rats”. The “tissue with the highest concentration level (liver)” value [5] was “same as in rats”.
